Test results from ChEMBL document CHEMBL1201862, “PubChem BioAssay data set” (2004).
Calls of active or inactive are those of the source.

Tests used:
[1] = HIV-1 AD8 envelope cell-cell fusion blockers – cherry-pick, dose response (AID 652062); assay type: functional, cell-based;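 further: luciferase signal from cell-cell fusion driven by HIV-1 clade B AD8 Env; potency is for inhibitors of fusion seen as a drop in luminescence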
[2] = viability loss in CEM21 cells – cell-based, CellTiter-Glo luminescence, cherry-picked, cytotoxicity control for viral fusion inhibitor project, dose response (AID 652042); assay type: functional;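 further: potency for signal decrease meaning cytotoxicity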
[3] = blockers of HIV-1 ZM109 envelope-driven cell-cell fusion – HeLa effector, CEM target cells, luciferase, cherry-pick, dose response (AID 652058); assay type: functional, cell-based;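 further: luciferase signal from HIV-1 Env mediated cell-cell fusion of effector and target cells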
[4] = blockers of HIV-1 envelope-mediated cell-cell fusion – cherry-pick, dose response (AID 652057); assay type: functional, cell-based
[5] = off-target signal loss in HeLa-CEM21 co-culture – HeLa F-luc CTL cells, cherry-picked, counter-screen for HIV-1 Env fusion inhibitor project, dose response (AID 652040); assay type: functional, cell-based;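 further: potency for signal decrease marking cytotoxic or nonspecific inhibition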
cells [6] = assay type: functional, cell-based
cells [7] = assay type: functional, cell-based; remark: listed apart in the source
Fatty acid synthase [8] = target: T1, Fatty acid synthase (Homo sapiens, UniProt P49327); test: inhibition of human FAS-TE enzyme activity – biochemical, kinetic fluorescence intensity, dose response (AID 624326); assay type: functional;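 further: rate of fluorescence rise from hydrolysis of a fluorogenic O-methyl fluorescein ester substrate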
Fatty acid synthase [9] = target: T1, Fatty acid synthase; test: inhibition of human FAS-TE enzyme activity – biochemical, endpoint fluorescence intensity, uHTS hits, dose response (AID 624327); assay type: functional;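 further: fluorescence from hydrolysis of an O-methyl fluorescein acyl ester substrate by the enzyme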
[10] = Luminescence Cell-Based Dose Response HTS to Identify Inhibitors of 5'UTR Stem-Loop Driven Prion Protein mRNA Translation in H4 Neuroglioblastoma Cells. [Related pubchem assays: 1827 (Project Summary), 1813 (Primary HTS)]; assay type: functional
[11] = luciferase reporter signal suppression in cells – H4 neuroglioma cells, luminescence, dose response (AID 1990); assay type: functional, cell-based
[12] = alpha-synuclein stem-loop luciferase translation blockers – H4 neuroglioma cells, luminescence, confirmation (AID 1988); assay type: functional, cell-based
[13] = Luminescence Cell-Based Dose Retest to Confirm Inhibitors of Cancer Stem Cells. [Related pubchem assays (depositor defined):AID2717, AID2721]; assay type: functional; details: Homo sapiens
[14] = reduction of Shn3 3'UTR-driven luciferase in osteoblasts – cell-based, Clone20 osteoblasts, firefly luciferase, cherry-picked, dose response (AID 624132); assay type: functional;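 further: firefly luciferase luminescence from reporter carrying the Shn3 3'UTR in osteoblasts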
[15] = loss of viability in HepG2 cells – cell-based, CellTiter-Glo, cherry-picked, cytotoxicity control for Shn3 inhibitor project, dose response (AID 624134); assay type: functional
[16] = non-specific 3'UTR reporter inhibition in Clone20-Shn3RL – cell-based, Renilla luciferase, cherry-picked, counter-screen for Shn3 inhibitor project, dose response (AID 624133); assay type: functional
[17] = target: T2, Apoptotic protease-activating factor 1 (Homo sapiens, UniProt O14727); assay type: functional
T2 sequence (O14727 whole entry): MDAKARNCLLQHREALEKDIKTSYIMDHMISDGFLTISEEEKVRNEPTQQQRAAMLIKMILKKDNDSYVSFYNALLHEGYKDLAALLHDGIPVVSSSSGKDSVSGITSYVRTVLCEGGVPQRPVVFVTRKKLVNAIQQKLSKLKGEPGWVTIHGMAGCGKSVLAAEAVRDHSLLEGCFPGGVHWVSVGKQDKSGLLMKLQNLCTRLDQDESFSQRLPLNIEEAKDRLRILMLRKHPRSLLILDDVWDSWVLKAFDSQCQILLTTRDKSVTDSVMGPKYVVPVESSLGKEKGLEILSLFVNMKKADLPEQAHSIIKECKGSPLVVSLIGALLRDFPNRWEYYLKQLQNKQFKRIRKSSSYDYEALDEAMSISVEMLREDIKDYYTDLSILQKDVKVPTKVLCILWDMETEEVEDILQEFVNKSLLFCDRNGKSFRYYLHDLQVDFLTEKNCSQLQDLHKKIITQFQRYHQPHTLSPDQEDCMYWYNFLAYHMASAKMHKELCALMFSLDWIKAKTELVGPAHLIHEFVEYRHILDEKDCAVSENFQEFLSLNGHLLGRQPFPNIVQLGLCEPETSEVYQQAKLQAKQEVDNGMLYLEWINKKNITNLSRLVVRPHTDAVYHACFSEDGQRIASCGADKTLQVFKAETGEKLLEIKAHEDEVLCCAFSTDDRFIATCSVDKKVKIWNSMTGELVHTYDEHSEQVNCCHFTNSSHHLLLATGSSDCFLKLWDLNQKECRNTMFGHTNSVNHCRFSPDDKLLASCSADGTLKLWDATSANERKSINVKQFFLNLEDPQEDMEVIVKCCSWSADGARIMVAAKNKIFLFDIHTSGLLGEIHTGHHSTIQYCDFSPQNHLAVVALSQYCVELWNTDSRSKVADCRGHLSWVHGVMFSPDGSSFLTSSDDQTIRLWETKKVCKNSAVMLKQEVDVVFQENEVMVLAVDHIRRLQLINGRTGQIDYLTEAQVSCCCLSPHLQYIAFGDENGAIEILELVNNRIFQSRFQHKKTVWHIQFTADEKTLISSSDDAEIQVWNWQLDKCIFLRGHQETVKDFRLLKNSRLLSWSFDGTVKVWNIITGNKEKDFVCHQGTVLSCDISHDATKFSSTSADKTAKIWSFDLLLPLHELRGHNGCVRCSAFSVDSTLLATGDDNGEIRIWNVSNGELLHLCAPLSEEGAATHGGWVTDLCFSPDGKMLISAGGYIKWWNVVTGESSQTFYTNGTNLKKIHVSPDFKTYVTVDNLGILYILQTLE

Protein RecA = target: T3, Protein RecA (Mycobacterium tuberculosis, UniProt P9WHJ3); test: Fluorescence Cell-Free Homogeneous Dose Retest to Identify Inhibitors of RecA-Intein Splicing Activity. [Related pubchem assays (depositor defined):AID2097, AID2223, AID489010, AID492950]; assay type: functional
T3 sequence (P9WHJ3 whole entry): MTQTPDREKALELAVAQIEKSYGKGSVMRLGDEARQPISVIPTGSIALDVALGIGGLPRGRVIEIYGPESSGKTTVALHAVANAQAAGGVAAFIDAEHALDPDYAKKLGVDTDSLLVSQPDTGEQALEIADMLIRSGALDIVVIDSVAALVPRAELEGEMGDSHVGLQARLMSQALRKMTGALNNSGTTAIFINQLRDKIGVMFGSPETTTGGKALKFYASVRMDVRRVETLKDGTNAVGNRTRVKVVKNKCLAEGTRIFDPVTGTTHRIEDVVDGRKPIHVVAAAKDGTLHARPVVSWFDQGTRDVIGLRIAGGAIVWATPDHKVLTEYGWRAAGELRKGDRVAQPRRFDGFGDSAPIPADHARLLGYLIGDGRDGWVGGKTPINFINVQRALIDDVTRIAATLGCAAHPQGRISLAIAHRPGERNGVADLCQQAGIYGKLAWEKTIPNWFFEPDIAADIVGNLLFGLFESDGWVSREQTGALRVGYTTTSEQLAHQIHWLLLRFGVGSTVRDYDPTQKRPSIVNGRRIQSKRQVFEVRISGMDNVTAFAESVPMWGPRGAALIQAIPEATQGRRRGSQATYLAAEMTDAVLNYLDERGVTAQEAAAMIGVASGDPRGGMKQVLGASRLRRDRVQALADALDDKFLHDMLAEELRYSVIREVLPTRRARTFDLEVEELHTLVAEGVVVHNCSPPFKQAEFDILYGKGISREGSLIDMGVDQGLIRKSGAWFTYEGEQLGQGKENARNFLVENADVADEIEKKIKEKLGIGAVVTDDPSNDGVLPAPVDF

[18] = target: T4, Replicative DNA helicase DnaB (Mycobacterium tuberculosis, UniProt P9WMR3); test: DnaB intein splicing inhibitors, dose response, biochemical, cell-free fluorescence (AID 449749); assay type: functional
T4 sequence (P9WMR3 whole entry): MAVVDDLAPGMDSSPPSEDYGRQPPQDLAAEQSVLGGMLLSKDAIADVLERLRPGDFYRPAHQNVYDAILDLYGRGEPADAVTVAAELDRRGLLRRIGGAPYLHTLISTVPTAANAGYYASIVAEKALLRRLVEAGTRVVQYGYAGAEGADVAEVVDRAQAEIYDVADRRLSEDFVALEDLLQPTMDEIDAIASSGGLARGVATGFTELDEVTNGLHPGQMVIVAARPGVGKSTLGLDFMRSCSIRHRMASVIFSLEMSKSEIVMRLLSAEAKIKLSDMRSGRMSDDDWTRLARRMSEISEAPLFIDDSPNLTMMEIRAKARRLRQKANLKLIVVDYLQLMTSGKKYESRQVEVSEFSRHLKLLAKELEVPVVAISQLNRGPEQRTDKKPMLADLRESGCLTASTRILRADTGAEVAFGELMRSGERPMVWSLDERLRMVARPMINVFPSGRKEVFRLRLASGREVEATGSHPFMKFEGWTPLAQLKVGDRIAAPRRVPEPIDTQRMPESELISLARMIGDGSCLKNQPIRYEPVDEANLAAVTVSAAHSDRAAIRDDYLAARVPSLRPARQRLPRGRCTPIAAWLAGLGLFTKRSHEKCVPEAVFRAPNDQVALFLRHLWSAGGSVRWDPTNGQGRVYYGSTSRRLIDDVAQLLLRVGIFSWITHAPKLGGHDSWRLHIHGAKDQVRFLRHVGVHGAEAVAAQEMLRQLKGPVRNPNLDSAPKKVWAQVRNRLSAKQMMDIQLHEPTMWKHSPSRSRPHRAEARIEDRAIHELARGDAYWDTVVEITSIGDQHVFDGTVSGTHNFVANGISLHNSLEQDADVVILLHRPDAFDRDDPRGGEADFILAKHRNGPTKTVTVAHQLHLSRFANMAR

T1 sequence (P49327 whole entry): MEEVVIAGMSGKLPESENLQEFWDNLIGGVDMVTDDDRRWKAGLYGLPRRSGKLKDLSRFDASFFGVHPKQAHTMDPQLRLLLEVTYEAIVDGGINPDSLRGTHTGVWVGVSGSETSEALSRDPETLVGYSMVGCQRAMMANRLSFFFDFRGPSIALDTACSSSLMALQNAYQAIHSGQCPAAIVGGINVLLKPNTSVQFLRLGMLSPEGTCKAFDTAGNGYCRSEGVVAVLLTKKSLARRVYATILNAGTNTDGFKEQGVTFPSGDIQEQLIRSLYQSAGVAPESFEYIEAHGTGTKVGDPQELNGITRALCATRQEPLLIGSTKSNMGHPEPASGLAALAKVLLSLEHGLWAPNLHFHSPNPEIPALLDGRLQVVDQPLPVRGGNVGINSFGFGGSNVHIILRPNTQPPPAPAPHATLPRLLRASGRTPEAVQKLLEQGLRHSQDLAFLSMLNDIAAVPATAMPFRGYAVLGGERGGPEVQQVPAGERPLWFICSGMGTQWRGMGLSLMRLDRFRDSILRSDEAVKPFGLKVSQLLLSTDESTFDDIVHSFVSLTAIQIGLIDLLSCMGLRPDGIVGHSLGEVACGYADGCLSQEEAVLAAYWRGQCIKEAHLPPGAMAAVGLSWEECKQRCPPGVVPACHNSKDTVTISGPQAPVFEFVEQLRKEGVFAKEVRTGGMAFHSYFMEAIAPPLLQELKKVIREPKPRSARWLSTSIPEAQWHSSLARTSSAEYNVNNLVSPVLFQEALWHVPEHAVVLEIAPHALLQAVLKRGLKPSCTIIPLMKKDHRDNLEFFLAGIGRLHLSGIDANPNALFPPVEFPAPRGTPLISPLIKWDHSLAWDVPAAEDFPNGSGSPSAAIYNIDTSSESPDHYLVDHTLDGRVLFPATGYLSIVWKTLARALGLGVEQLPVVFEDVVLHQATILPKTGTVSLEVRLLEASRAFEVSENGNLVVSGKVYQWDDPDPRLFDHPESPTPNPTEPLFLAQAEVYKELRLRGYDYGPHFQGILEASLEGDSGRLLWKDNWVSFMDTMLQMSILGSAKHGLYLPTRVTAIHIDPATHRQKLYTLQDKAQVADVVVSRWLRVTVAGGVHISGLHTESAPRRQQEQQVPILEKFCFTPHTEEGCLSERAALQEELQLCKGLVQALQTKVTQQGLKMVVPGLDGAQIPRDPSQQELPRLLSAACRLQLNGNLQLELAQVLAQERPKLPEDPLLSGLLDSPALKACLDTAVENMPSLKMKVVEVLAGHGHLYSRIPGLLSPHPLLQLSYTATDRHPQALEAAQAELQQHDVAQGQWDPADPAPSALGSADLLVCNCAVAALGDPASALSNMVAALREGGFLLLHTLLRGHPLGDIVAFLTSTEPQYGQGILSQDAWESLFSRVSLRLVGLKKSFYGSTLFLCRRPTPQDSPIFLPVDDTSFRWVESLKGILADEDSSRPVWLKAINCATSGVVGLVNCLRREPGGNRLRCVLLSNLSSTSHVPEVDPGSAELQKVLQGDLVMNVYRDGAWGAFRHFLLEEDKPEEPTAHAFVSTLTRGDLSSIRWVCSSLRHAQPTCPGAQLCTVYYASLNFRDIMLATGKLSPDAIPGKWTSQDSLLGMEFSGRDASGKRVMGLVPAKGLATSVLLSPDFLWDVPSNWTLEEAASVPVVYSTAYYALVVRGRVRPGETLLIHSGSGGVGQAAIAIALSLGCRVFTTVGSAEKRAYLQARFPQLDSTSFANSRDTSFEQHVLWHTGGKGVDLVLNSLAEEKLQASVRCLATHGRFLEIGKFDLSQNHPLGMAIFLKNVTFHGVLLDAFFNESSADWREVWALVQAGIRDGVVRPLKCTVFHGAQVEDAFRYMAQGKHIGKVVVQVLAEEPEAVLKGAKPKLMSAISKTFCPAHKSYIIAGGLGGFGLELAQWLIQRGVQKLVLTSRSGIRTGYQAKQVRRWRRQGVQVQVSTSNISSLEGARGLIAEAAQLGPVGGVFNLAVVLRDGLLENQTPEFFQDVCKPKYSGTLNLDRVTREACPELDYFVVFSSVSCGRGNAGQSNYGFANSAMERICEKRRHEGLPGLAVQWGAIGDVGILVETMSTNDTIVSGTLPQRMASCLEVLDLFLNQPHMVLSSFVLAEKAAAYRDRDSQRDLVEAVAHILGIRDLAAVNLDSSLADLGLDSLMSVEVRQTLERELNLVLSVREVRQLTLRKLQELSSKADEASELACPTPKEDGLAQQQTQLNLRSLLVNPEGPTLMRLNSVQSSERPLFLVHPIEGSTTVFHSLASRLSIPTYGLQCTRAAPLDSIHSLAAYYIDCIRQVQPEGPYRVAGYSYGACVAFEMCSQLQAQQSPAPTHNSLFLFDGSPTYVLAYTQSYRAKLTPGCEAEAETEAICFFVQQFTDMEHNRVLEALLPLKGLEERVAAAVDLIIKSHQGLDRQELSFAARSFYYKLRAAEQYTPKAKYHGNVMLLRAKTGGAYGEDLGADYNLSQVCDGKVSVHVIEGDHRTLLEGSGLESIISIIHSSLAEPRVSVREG

SMILES | AC50 [1] | AC50 [3] | AC50 [4] | AC50 [5] | IC50 (Fatty acid synthase [8]) | IC50 (Fatty acid synthase [9]) | further results
COc1ccc(C(O)(CCC(C)C)C(CN2CCOCC2)c2ccccc2)cc1 (centres undefined) | 40.3 µM (active) | 23.3 µM (active) | 5.79 µM (active) | 23.8 µM (active) |  |  | AC50 [2]: 51.9 µM (active)
CC(C)(C)CN1CCNC(=O)C1CC(=O)NCCc1ccccc1F (centres undefined) |  |  |  |  |  |  | EC50 (cells [6]): > 29.9 µM (inactive); IC50 (cells [7]): > 29.9 µM (inactive)
CCN1CCN(S(=O)(=O)c2ccc(Cl)c(C(=O)N(C)Cc3ccc(C(C)(C)C)cc3)c2)CC1 |  |  |  |  | 17.3 µM (active) | 13.5 µM (active) | 
Cc1ccc(S(=O)(=O)N2CCC(=O)N(CCOC(=O)Nc3cccc(Cl)c3)CC2)cc1 | 7.72 µM (active) | 4.6 µM (active) | 3.12 µM (active) | 4.11 µM (active) |  |  | 
Fc1ccc(C(OCCN2CCN(CCCc3ccccc3)CC2)c2ccc(F)cc2)cc1 | 12.3 µM (active) | 8.74 µM (active) | 8.27 µM (active) | 13 µM (active) |  |  | EC50 [10]: > 120 µM (not active); AC50 [2]: 14.5 µM (active); EC50 [11]: 9.61 µM (active); EC50 [12]: > 120 µM (not active); AC50 [13]: 3.05 µM (active); AC50 [14]: 6.17 µM (active); AC50 [15]: 38.8 µM (active); AC50 [16]: 8.11 µM (active)
C[C@H](CO)N1C[C@H](C)[C@@H](CN(C)C(=O)NC2CCCCC2)Oc2c(NC(=O)Nc3ccccc3)cccc2C1=O |  |  |  |  | 3.04 µM (active) | 4.16 µM (active) | 
CC(=O)N(C1=C(N)C(=O)c2ccccc2C1=O)c1ccccc1 |  |  |  |  |  |  | IC50 [17]: 10.4 µM (active); EC50 (Protein RecA): 2.18 µM (active); AC50 [18]: 3.46 µM (active)
O=C(/C=C/c1cc([N+](=O)[O-])ccc1OC(F)F)Nc1cccc2ccccc12 |  |  |  |  | 61.9 µM (inactive) | 24.6 µM (inactive) | 
C#CCN(C[C@H]1[C@H](OC(=O)NC2CCCC2)[C@H](OC(=O)NC2CCCC2)C[C@H]2C(=O)N(c3ccccc3)C(=O)[C@@H]12)S(=O)(=O)c1ccc(C)cc1 |  |  |  |  | 23 µM (inactive) | 47.5 µM (inactive) | 
